Reference: patent publication US6187810A, “Macrocyclic compounds made from suboxide units” (Donatur Dr. Kerek GmbH, priority 1996, dated 2001)
Like-named read-outs stand apart in the source and are kept apart here.

How the values were obtained:
mice = conditions: cited from earlier work; for toxicity in words (blood toxin, irritation): mouse, in vivo
hemoglobin = conditions: cited from earlier work
[1] = Acute toxicity of cardiac glycosides applied together with the active substances; format: in vivo
Excerpt: Furthermore, as was experimentally established, the active substances according to the invention are capable to control the activity of several other essential enzymes, for example collegenases, hyaluronidases, phosphokinases and other enzymes. According to all indications, the active substances according to the invention are useable as endogenous ligands of the Na^+,K^+ -ATPase enzyme.

O=C=C=C=O [C3 O2, carbon suboxide]
tolerability limit in mice (mice; C3 O2 in dry air): 0.2-0.4% | toxicity in words (blood toxin, irritation) (mice): irritating to mucus membranes | toxicity in words (blood toxin, irritation) (mice; listed as Carbon suboxide): relatively strong blood toxin | binding to hemoglobin (hemoglobin): irreversibly binds hemoglobin

C[C@@H]1O[C@@H](O[C@H]2CC[C@]3(C=O)[C@H]4CC[C@]5(C)[C@@H](c6ccc(=O)oc6)CC[C@]5(O)[C@@H]4CC[C@]3(O)C2)[C@H](O)[C@H](O)[C@H]1O[C@@H]1O[C@H](CO)[C@@H](O)[C@H](O)[C@H]1O [hellebrin]
LD50 ([1]; with active substances at molar ratio 0.02 to 2/1 mol glycoside, preferably 1:1): considerably higher

C[C@@H]1O[C@@H](O[C@H]2C[C@@H](O)[C@]3(CO)[C@H]4[C@H](O)C[C@]5(C)[C@@H](C6=CC(=O)OC6)CC[C@]5(O)[C@@H]4CC[C@]3(O)C2)[C@H](O)[C@H](O)[C@H]1O [ouabain]
toxic side-effects of cardiac glycoside ([1]; active substances applied together with the glycoside): reduction of the toxic side-effects
